In article PMC7617869, “Molecular glues that inhibit deubiquitylase activity and inflammatory signaling” (Nature Structural & Molecular Biology, 2025):
“And” between values parts separate entries of the source, which are not always exact repeats. Equal values may be shown once.

Columns and labels:
[1] = tested on: CfBRISCΔNΔC; assay: CfBRISCΔNΔC IQF DUB activity assay; type: biochemical, ant (Camponotus floridanus); conditions: for Normalised V0: CfBRISCΔNΔC
Procedure: (§1) IQF assays were performed in DUB reaction buffer containing 50 mM HEPES–NaOH pH 7.0, 100 mM NaCl, 0.1 mg ml^−1 BSA, 1 mM DTT and 0.03% v/v Brij-35. […] The final concentration of BRISC WT, all BRISC mutants, HsBRISCΔLoop, MmBRISC and DrBRISCΔNΔC was 1 nM. Other enzymes were tested at the following concentrations: 5 nM ARISC (FL), 10 nM CfBRISCΔNΔC, 250 nM AMSH* (ref. [43]), 500 nM USP2 and 1 μM trypsin (Sigma, 9002-07-7). For Michaelis–Menten experiments, 1 nM BRISC with 0–1 μM IQF K63-linked diubiquitin substrate was used. Michaelis–Menten analyses and Lineweaver–Burk plots were calculated using GraphPad Prism (version 9.0).
To assess enzymatic activity, BRISC complexes were diluted to concentrations between 1 nM and 50 nM. […] Then, 20-μl enzyme reactions were carried out in 384-well black flat-bottom low-flange plates (Corning, 35373). DUB activity was measured using IQF K63-linked diubiquitin (LifeSensors, DU6303) at 50 nM. Cleaved diubiquitin was monitored by measuring fluorescence intensity (excitation, 544 nm; emission, 575 nm; dichroic mirror, 560 nm). Fluorescence intensity was measured every minute for 30 min at 30 °C. Fluorescence intensity units were plotted against time to generate a linear reaction progress curve, where the initial velocity (V0) corresponds to the gradient of the curve (typically achieved within 15 min). IC50 values were calculated using the GraphPad Prism (version 9.0) built-in dose–response equation for inhibitor concentration versus response (variable slope).

[2] = target: BRISC Abraxas2 I133W (Homo sapiens, UniProt P46736+Q15018+Q9NXR7, I133W); assay: BRISC mutant IQF assay: Abraxas2 I133W; type: biochemical
Procedure: as §1
To assess enzymatic activity, BRISC complexes were diluted to concentrations between 1 nM and 50 nM. […] DUB activity was measured using IQF K63-linked diubiquitin (LifeSensors, DU6303) at 50 nM. Cleaved diubiquitin was monitored by measuring fluorescence intensity (excitation, 544 nm; emission, 575 nm; dichroic mirror, 560 nm). Fluorescence intensity was measured every minute for 30 min at 30 °C. Fluorescence intensity units were plotted against time to generate a linear reaction progress curve, where the initial velocity (V0) corresponds to the gradient of the curve (typically achieved within 15 min). IC50 values were calculated using the GraphPad Prism (version 9.0) built-in dose–response equation for inhibitor concentration versus response (variable slope).

[3] = target: HsBRISCΔLoop (Homo sapiens, UniProt P46736+Q15018+Q9NXR7, DEL184-208); assay: Mass photometry of HsBRISCΔLoop dimer formation; conditions: for Dimer fraction: HsBRISCΔLoop
[4] = target: T1, panel of 48 purified DUBs (Homo sapiens, UniProt O75317); assay: DUB selectivity profiling (DUBprofiler, ubiquitin–rhodamine(110)–glycine); type: biochemical; conditions: DUB USP12/UAF1/WDR20; screening concentration 5 μM
T1 construct: purchased Ubiquigent (DUBprofiler service)
Procedure: (§2) Biochemical selectivity profiling (DUBprofiler) was performed by Ubiquigent with a panel of 48 purified DUBs and ubiquitin–rhodamine(110)–glycine as a fluorescent substrate.

[5] = target: T2, panel of 48 purified DUBs (Homo sapiens, UniProt P40818); assay: as above; type: biochemical; conditions: DUB USP8; screening concentration 5 μM; 5 µM
T2 construct: purchased Ubiquigent (DUBprofiler service)
Procedure: as §2

[6] = target: T3, panel of 48 purified DUBs (Homo sapiens, UniProt P45974); assay: as above; type: biochemical; conditions: DUB USP5; screening concentration 5 μM; 5 µM
T3 construct: purchased Ubiquigent (DUBprofiler service)
Procedure: as §2

[7] = target: T4, panel of 48 purified DUBs (Homo sapiens, UniProt P54252); assay: as above; type: biochemical; conditions: DUB Ataxin3; screening concentration 5 μM; 5 µM
T4 construct: purchased Ubiquigent (DUBprofiler service)
T4 sequence (P54252 whole entry): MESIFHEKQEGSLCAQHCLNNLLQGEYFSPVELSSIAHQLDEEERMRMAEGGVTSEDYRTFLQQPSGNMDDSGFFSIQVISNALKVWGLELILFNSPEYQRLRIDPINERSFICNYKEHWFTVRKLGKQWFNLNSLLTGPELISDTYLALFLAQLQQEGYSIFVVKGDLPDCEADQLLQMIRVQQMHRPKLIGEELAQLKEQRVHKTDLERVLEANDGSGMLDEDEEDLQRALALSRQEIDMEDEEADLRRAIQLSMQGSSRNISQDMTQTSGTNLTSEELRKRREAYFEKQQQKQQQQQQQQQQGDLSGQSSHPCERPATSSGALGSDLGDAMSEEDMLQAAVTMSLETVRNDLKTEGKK
Procedure: as §2

[8] = target: T5, panel of 48 purified DUBs (Homo sapiens, UniProt P62068); assay: as above; type: biochemical; conditions: DUB USP46/UAF1/WDR20; screening concentration 5 μM; 5 µM
T5 construct: purchased Ubiquigent (DUBprofiler service)
T5 sequence (P62068 whole entry): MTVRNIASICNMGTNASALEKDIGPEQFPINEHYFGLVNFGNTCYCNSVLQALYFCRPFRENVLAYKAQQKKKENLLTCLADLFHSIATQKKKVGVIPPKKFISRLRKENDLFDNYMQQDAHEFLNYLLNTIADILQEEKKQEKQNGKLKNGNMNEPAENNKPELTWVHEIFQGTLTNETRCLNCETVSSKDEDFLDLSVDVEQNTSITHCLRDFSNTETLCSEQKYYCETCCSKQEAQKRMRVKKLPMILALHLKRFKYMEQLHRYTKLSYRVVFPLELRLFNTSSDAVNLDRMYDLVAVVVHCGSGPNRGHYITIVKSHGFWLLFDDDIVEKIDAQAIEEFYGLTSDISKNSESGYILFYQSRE
Procedure: as §2

[9] = target: T6, panel of 48 purified DUBs (Homo sapiens, UniProt Q14694); assay: as above; type: biochemical; conditions: DUB USP10; screening concentration 5 μM; 5 µM
T6 construct: purchased Ubiquigent (DUBprofiler service)
T6 sequence (Q14694 whole entry): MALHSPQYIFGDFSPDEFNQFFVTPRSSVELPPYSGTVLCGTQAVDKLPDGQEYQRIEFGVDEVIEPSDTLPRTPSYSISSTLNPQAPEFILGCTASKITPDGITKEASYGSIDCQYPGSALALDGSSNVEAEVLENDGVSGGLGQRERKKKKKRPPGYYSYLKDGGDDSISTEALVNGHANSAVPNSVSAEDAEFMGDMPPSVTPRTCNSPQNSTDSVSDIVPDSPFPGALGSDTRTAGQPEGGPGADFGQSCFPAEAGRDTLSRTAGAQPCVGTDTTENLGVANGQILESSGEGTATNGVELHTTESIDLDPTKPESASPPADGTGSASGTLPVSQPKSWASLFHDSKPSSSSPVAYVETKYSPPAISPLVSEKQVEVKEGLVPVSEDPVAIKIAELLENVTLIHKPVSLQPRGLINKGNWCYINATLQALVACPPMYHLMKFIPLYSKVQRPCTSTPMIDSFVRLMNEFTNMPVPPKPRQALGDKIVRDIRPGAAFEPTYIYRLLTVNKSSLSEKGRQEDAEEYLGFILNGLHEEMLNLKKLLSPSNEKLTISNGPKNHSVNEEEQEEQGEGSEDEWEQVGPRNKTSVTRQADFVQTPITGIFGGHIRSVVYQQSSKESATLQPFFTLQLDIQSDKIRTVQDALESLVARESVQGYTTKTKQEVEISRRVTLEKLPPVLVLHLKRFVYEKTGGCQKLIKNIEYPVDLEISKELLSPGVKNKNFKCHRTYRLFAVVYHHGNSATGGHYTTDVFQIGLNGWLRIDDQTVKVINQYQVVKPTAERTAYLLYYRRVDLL
Procedure: as §2

[10] = target: T7, panel of 48 purified DUBs (Homo sapiens, UniProt Q15040); assay: as above; type: biochemical; conditions: DUB JOSD1; screening concentration 5 μM
T7 construct: purchased Ubiquigent (DUBprofiler service)
Procedure: as §2

[11] = target: T8, panel of 48 purified DUBs (Homo sapiens, UniProt Q5VVQ6); assay: as above; type: biochemical; conditions: DUB OTU1; screening concentration 5 μM
T8 construct: purchased Ubiquigent (DUBprofiler service)
Procedure: as §2

[12] = target: T9, panel of 48 purified DUBs (Homo sapiens, UniProt Q7L8S5); assay: as above; type: biochemical; conditions: DUB OTUD6A; screening concentration 5 μM; 5 µM
T9 construct: purchased Ubiquigent (DUBprofiler service)
T9 sequence (Q7L8S5 whole entry): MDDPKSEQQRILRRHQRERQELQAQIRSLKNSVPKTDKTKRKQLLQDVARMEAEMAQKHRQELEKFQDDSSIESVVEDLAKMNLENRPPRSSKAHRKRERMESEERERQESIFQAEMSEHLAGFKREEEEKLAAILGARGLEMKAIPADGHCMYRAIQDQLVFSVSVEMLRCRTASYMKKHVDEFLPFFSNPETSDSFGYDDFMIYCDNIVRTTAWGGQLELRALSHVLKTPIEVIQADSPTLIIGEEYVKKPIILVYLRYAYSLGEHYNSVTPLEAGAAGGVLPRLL
Procedure: as §2

[13] = target: T10, panel of 48 purified DUBs (Homo sapiens, UniProt Q86UV5); assay: as above; type: biochemical; conditions: DUB USP48; screening concentration 5 μM; 5 µM
T10 construct: purchased Ubiquigent (DUBprofiler service)
T10 sequence (Q86UV5 whole entry): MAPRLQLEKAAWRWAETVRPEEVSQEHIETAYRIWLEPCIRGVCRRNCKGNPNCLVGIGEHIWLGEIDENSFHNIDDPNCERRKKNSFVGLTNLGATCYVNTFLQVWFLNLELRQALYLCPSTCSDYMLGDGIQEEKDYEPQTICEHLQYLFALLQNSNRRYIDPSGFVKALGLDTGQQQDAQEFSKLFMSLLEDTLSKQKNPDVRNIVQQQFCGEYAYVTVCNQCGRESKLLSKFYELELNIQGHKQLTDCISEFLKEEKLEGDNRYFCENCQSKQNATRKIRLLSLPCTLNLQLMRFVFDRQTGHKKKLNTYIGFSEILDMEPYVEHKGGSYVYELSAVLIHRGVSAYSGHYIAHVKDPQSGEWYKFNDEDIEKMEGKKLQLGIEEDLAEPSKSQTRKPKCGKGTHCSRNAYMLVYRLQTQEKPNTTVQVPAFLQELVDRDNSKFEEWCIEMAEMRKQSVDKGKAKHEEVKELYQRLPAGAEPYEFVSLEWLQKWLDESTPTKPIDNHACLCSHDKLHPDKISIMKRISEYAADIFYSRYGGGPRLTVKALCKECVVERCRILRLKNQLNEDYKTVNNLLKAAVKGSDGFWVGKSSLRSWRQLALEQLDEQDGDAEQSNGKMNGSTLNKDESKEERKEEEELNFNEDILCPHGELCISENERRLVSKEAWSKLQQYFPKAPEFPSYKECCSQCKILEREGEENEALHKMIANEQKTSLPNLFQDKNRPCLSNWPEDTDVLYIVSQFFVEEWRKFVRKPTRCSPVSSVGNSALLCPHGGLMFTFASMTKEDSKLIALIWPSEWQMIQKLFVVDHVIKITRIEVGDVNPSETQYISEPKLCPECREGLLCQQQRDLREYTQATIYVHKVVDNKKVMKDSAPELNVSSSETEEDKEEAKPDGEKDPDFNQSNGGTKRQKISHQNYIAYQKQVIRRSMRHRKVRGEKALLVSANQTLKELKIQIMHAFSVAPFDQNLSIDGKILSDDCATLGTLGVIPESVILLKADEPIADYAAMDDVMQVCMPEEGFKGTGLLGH
Procedure: as §2

[14] = target: T11, panel of 48 purified DUBs (Homo sapiens, UniProt Q93009); assay: as above; type: biochemical; conditions: DUB USP7; screening concentration 5 μM; 5 µM
T11 construct: purchased Ubiquigent (DUBprofiler service)
T11 sequence (Q93009 whole entry): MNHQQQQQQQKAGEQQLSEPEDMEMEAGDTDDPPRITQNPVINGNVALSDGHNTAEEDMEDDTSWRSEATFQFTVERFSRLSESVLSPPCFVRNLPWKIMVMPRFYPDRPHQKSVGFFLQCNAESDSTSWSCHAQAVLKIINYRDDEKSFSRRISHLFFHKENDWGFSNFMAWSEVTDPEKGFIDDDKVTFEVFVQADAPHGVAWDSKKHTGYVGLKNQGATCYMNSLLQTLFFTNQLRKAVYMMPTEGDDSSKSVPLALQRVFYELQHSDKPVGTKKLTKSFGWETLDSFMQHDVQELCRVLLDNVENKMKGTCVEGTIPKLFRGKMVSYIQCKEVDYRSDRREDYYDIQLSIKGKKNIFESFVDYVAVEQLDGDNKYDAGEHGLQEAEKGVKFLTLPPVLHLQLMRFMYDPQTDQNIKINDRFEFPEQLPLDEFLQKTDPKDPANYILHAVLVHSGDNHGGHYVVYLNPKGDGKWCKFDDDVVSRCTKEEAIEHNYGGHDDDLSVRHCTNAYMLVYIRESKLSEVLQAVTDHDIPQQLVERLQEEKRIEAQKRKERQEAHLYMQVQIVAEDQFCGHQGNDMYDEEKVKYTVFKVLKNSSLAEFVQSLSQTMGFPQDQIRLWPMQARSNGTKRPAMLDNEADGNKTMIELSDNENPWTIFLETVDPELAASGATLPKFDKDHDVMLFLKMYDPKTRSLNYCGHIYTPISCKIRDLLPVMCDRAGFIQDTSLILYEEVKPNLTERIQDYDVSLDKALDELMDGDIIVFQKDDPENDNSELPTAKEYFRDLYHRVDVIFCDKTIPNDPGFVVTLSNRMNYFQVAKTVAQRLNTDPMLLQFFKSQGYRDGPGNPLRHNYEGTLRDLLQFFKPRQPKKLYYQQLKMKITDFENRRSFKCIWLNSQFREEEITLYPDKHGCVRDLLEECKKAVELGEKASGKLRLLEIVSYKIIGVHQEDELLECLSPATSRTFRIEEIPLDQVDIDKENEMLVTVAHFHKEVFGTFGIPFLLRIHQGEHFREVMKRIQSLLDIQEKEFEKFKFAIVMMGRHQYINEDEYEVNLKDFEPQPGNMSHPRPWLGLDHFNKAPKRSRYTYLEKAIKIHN
Procedure: as §2

[15] = target: T12, panel of 48 purified DUBs (Homo sapiens, UniProt Q9H3M9); assay: as above; type: biochemical; conditions: DUB Ataxin3L; screening concentration 5 μM; 5 µM
T12 construct: purchased Ubiquigent (DUBprofiler service)
Procedure: as §2

[16] = target: T13, panel of 48 purified DUBs (Homo sapiens, UniProt Q9P2H5); assay: as above; type: biochemical; conditions: DUB USP35; screening concentration 5 μM; 5 µM
T13 construct: purchased Ubiquigent (DUBprofiler service)
T13 sequence (Q9P2H5 whole entry): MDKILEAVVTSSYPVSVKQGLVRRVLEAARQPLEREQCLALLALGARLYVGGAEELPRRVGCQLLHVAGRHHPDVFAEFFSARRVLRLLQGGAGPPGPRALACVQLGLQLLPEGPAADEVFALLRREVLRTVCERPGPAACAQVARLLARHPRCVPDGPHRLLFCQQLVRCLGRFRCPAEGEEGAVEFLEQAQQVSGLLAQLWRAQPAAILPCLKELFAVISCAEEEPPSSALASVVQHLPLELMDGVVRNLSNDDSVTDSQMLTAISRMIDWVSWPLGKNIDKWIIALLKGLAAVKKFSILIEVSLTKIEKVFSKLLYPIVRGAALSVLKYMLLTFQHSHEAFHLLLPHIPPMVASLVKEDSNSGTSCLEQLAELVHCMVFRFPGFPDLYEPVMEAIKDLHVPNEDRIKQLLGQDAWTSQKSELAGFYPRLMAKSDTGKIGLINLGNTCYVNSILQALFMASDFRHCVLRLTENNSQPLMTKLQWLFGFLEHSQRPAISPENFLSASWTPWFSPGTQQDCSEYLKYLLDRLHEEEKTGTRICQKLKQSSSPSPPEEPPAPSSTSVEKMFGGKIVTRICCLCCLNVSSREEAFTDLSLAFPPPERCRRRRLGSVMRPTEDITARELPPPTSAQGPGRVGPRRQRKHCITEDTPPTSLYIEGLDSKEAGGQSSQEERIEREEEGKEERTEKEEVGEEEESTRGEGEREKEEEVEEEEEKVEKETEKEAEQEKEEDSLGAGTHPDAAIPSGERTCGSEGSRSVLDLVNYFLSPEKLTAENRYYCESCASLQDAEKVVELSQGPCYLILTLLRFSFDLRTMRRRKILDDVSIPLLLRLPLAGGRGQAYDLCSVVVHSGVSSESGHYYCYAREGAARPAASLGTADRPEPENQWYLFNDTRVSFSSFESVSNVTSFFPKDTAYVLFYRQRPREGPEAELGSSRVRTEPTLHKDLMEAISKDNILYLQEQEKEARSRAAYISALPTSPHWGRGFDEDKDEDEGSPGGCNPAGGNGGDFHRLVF
Procedure: as §2

[17] = target: T14, panel of 48 purified DUBs (Homo sapiens, UniProt Q9Y2K6); assay: as above; type: biochemical; conditions: DUB USP20; screening concentration 5 μM; 5 µM
T14 construct: purchased Ubiquigent (DUBprofiler service)
Procedure: as §2

[18] = target: T15, panel of 48 purified DUBs (Homo sapiens, UniProt Q9Y4E8); assay: as above; type: biochemical; conditions: DUB USP15; screening concentration 5 μM; 5 µM
T15 construct: purchased Ubiquigent (DUBprofiler service)
Procedure: as §2

O=C(NC1C2CNCC21)c1nn(C(=O)c2c(Cl)cccc2Cl)cc1NC(=O)c1c(Cl)cccc1Cl (stereo not drawn) [FX-171-C]
inhibition of ant BRISC [1]: no inhibition
Normalised V0 ([1]; FX-171-C 0.013 μM): 0.8962 and 0.9603 and 0.9451 and 1.01 and 0.9065 and 0.9614
Normalised V0 ([1]; FX-171-C 0.02 μM): 0.8823 and 0.9398 and 0.9125
Normalised V0 ([1]; FX-171-C 0.0399999 μM): 0.8374 and 1.085 and 0.922
Normalised V0 ([1]; FX-171-C 0.0599997 μM): 0.96 and 0.9545 and 0.8432
Normalised V0 ([1]; FX-171-C 0.0799994 μM): 0.96 and 1.021 and 0.8317
Normalised V0 ([1]; FX-171-C 0.119998 μM): 0.912 and 0.9545 and 0.6902
Normalised V0 ([1]; FX-171-C 0.199996 μM): 0.9393 and 1.029 and 0.809
Normalised V0 ([1]; FX-171-C 0.499975 μM): 0.8932 and 0.9706 and 1.16
Normalised V0 ([1]; FX-171-C 0.799937 μM): 0.8483 and 0.9187 and 0.8448
Normalised V0 ([1]; FX-171-C 1.25984 μM): 0.9211 and 1.122 and 1.015
Normalised V0 ([1]; FX-171-C 1.9996 μM): 0.9132 and 0.9123 and 0.84
Normalised V0 ([1]; FX-171-C 3.159 μM): 0.9417 and 1.133 and 0.9365
Normalised V0 ([1]; FX-171-C 5.19739 μM): 0.9697 and 1.085 and 0.6282
Normalised V0 ([1]; FX-171-C 7.99364 μM): 0.932 and 1.064 and 1.2693
Normalised V0 ([1]; FX-171-C 12.7839 μM): 1.03 and 1.045 and 0.7909
Normalised V0 ([1]; FX-171-C 19.96 μM): 1.048 and 1.129 and 1.039
Normalised V0 ([1]; FX-171-C 31.4999 μM): 0.9199 and 1.137 and 0.9151
Normalised V0 ([1]; FX-171-C 50.147 μM): 0.8823 and 1.1 and 0.9082
Normalised V0 ([1]; FX-171-C 79.7601 μM): 0.9478 and 0.9802 and 1.294
Normalised V0 ([1]; FX-171-C 125.99 μM): 0.8064 and 1.008 and 0.9331
Normalised V0 ([1]; FX-171-C 199.922 μM): 1.048 and 0.9667 and 0.9357
IC50 [2]: 2300 nM
inhibitor sensitivity vs BRISC WT [2]: moderate to little effect on inhibitor sensitivity
Dimer fraction ([3]; [FX-171-C (μM)] 20): 0
Dimer fraction ([3]; [FX-171-C (μM)] 40): 0
Dimer fraction ([3]; [FX-171-C (μM)] 80): 0
Dimer fraction ([3]; [FX-171-C (μM)] 156): 0
Dimer fraction ([3]; [FX-171-C (μM)] 312.5): 0
Dimer fraction ([3]; [FX-171-C (μM)] 2500): 0.11 and 0.07
Dimer fraction ([3]; [FX-171-C (μM)] 5000): 0.16 and 0.15 and 0.14
Dimer fraction ([3]; [FX-171-C (μM)] 10000): 0.23 and 0.22 and 0.14
dimer formation of human BRISCΔLoop on inhibitor addition ([3]; mass photometry and negative-stain EM): fewer dimers

O=C(NC1CCNCC1)c1nn(C(=O)c2c(Cl)cccc2Cl)cc1NC(=O)c1c(Cl)cccc1Cl [JMS-175-2]
Activity (% control) [4]: 96 % control
Activity (% control) [5]: 88 % control and 84 % control
Activity (% control) [6]: 103 % control and 105 % control
Activity (% control) [7]: 87 % control and 85 % control
Activity (% control) [8]: 95 % control and 99 % control
Activity (% control) [9]: 95 % control and 102 % control
Activity (% control) [10]: 67 % control
Activity (% control) [11]: 84 % control
Activity (% control) [12]: 100 % control and 103 % control
Activity (% control) [13]: 99 % control and 103 % control
Activity (% control) [14]: 116 % control and 121 % control
Activity (% control) [15]: 98 % control and 95 % control
Activity (% control) [16]: 96 % control and 94 % control
Activity (% control) [17]: 93 % control and 101 % control
Activity (% control) [18]: 111 % control and 115 % control
